Reference: patent publication EP4194453A1, “PYRAZINE COMPOUNDS FOR THE CONTROL OF INVERTEBRATE PESTS” (BASF SE, priority 2021, dated 2023)

Tests used:
Assay type in all cases: in vivo
[1] = test system: Diamond back moth (Plutella xylostella); assay: Diamond back moth leaf-dip test on cabbage leaves; details: 3rd instar larvae, 72 hours after treatment, in comparison with untreated controls
Experimental: The active compound was dissolved at the desired concentration in a mixture of 1:1 (vol:vol) distilled water: acetone. Surfactant (Kinetic HV) was added at a rate of 0.01% (vol/vol). The test solution was prepared on the day of use.
Leaves of cabbage were dipped in test solution and air-dried. Treated leaves were placed in petri dishes lined with moist filter paper and inoculated with ten 3rd instar larvae. Mortality was recorded 72 hours after treatment. Feeding damages were also recorded using a scale of 0-100%.

[2] = test system: Green Peach Aphid (Myzus persicae); assay: Green peach aphid systemic test, artificial diet in microtiter plates; details: 72 h, adult aphids, 3 days, in comparison with untreated controls
From the text: For evaluating control of green peach aphid (Myzus persicae) through systemic means the test unit consisted of 96-well-microtiter plates containing liquid artificial diet under an artificial mem brane.
The compounds were formulated using a solution containing 75% v/v water and 25% v/v DMSO. Different concentrations of formulated compounds were pipetted into the aphid diet, using a custom built pipetter, at two replications.
After application, 5-8 adult aphids were placed on the artificial membrane inside the microtiter plate wells. The aphids were then allowed to suck on the treated aphid diet and incubated at about 23 ± 1°C and about 50 ± 5 % relative humidity for 3 days. Aphid mortality and fecundity was then visually assessed.

[3] = test system: Southern armyworm (Spodoptera eridania), 2nd instar larvae; assay: Southern armyworm foliar spray test on lima bean plants; details: 96 h, 4 days after treatment, in comparison with untreated controls
Experimental: The active compounds were formulated by a Tecan liquid handler in 100% cyclohexanone as a 10,000 ppm solution supplied in tubes. The 10,000 ppm solution was serially diluted in 100% cyclohexanone to make interim solutions. These served as stock solutions for which final dilutions were made by the Tecan in 50% acetone:50% water (v/v) into 10 or 20ml glass vials. A nonionic surfactant (Kinetic®) was included in the solution at a volume of 0.01% (v/v). The vials were then inserted into an automated electrostatic sprayer equipped with an atomizing nozzle for application to plants/insects. Lima bean plants (variety Sieva) were grown 2 plants to a pot and selected for treatment at the 1st true leaf stage. Test solutions were sprayed onto the foliage by an auto-mated electrostatic plant sprayer equipped with an atomizing spray nozzle. The plants were dried in the sprayer fume hood and then removed from the sprayer. Each pot was placed into perforated plastic bags with a zip closure. Ten to 11 armyworm larvae were placed into the bag and the bags zipped closed. Test plants were maintained in a growth room at about 25°C and about 20-40% relative humidity for 4 days, avoiding direct exposure to fluorescent light (14:10 light:dark photoperiod) to prevent trapping of heat inside the bags. Mortality and reduced feeding were assessed 4 days after treatment, compared to untreated control plants.

[4] = test system: Boll weevil (Anthonomus grandis); assay: Boll weevil insect diet test in microtiter plates; details: 120 h, egg and larval mortality, 5 days, in comparison with untreated controls
Experimental: For evaluating control of boll weevil (Anthonomus grandis) the test unit consisted of 96-well-microtiter plates containing an insect diet and 5-10 A. grandis eggs.
The compounds were formulated using a solution containing 75% v/v water and 25% v/v DMSO. Different concentrations of formulated compounds were sprayed onto the insect diet at 5µl, using a custom-built micro atomizer, at two replications.
After application, microtiter plates were incubated at about 25 ± 1°C and about 75 ± 5 % relative humidity for 5 days. Egg and larval mortality was then visually assessed.

[5] = test system: Tobacco budworm (Heliothis virescens); assay: Tobacco budworm insect diet test in microtiter plates; details: 120 h, egg and larval mortality, 5 days, in comparison with untreated controls
Experimental: For evaluating control of tobacco budworm (Heliothis virescens) the test unit consisted of 96-well-microtiter plates containing an insect diet and 15-25 H. virescens eggs.
The compounds were formulated using a solution containing 75% v/v water and 25% v/v DMSO. Different concentrations of formulated compounds were sprayed onto the insect diet at 10 µl using a custom-built micro atomizer, at two replications.
After application, microtiter plates were incubated at about 28 ± 1°C and about 80 ± 5 % relative humidity for 5 days. Egg and larval mortality was then visually assessed.

[6] = test system: Orchid thrips (Dichromothrips corbetti); assay: Orchid thrips floral-immersion test; details: adult thrips, 72 hours after treatment, in comparison with untreated controls
Experimental: Dichromothrips corbetti adults used for bioassay were obtained from a colony maintained continuously under laboratory conditions. For testing purposes, the test compound is diluted in a 1:1 mixture of acetone:water (vol:vol), plus Kinetic HV at a rate of 0.01% v/v.
Thrips potency of each compound was evaluated by using a floral-immersion technique. All petals of individual, intact orchid flowers were dipped into treatment solution and allowed to dry in Petri dishes. Treated petals were placed into individual re-sealable plastic along with about 20 adult thrips. All test arenas were held under continuous light and a temperature of about 28°C for duration of the assay. After 3 days, the numbers of live thrips were counted on each petal. The percent mortality was recorded 72 hours after treatment.

Cc1nc(-c2nccnc2C(C)NC(=O)c2cc(C(F)(F)F)cc(C(F)(F)F)c2)no1 (stereo not drawn) [I-1, N-[1-[3-(5-methyl-1,2,4-oxadiazol-3-yl)pyrazin-2-yl]ethyl]-3,5-bis(trifluoromethyl)benzamide]
≥ 75%: mortality at 300 ppm [1] | mortality at 2500 ppm [2] | mortality at 300 ppm [3] | mortality at 2500 ppm [4] | mortality at 2500 ppm [5]

CCN(C)C(=O)c1nc(-c2nccnc2C(C)NC(=O)c2cc(C(F)(F)F)cc(C(F)(F)F)c2)no1 (stereo not drawn) [I-2, 3-[3-[1-[[3,5-bis(trifluoromethyl)benzoyl]amino]ethyl]pyrazin-2-yl]-N-ethyl-N-methyl-1,2,4-oxadiazole-5-carboxamide]
≥ 75%: mortality at 300 ppm [1] | mortality at 2500 ppm [4] | mortality at 2500 ppm [5]

Cc1nc(-c2nccnc2C(C)N(CC2CC2)C(=O)c2cc(C(F)(F)F)cc(C(F)(F)F)c2)no1 (stereo not drawn) [I-3, N-(cyclopropylmethyl)-N-[1-[3-(5-methyl-1,2,4-oxadiazol-3-yl)pyrazin-2-yl]ethyl]-3,5-bis(trifluoromethyl)benzamide]
≥ 75%: mortality at 300 ppm [1] | mortality at 2500 ppm [2] | mortality at 300 ppm [3] | mortality at 2500 ppm [4] | mortality at 300 ppm [6]

CNC(=O)c1nc(-c2nccnc2C(C)N(CC2CC2)C(=O)c2cc(C(F)(F)F)cc(C(F)(F)F)c2)no1 (stereo not drawn) [I-4, 3-[3-[1-[[3,5-bis(trifluoromethyl)benzoyl]-(cyclopropylmethyl)amino]ethyl]pyrazin-2-yl]-N-methyl-1,2,4-oxadiazole-5-carboxamide]
≥ 75%: mortality at 2500 ppm [4] | mortality at 2500 ppm [5]
